Where two headings read alike, the source gives them in different places. Where only a bound is given, the exact number is not on record here.

Experimental findings from patent US6979686B1, “Substituted pyrazoles as p38 kinase inhibitors” (Pharmacia Corporation, priority 2001, dated 2005) are described below.

One assay has as its target T1, human p38 kinase alpha (Homo sapiens, UniProt Q16539).
T1 construct: GST (N, cleaved yes); made in house; host or cells: E. coli DH10B
Kind of assay: p38 kinase in vitro assay, phosphorylation of biotinylated PHAS-I with 32P-ATP. Format: biochemical.

Assay [1] concerns TNF-α, U937 human histiocytic lymphoma cell line. Kind of assay: LPS stimulation of TNF production by U937 cells. In kind it is cell-based. As to conditions: TNF production; for U937 Cell % inhib @ conc. / U937 Cell IC50, uM or % inhib @ conc. (uM): % inhib: @ 10.0 uM; for U937 Cell % inhib @ conc.: LPS-stimulated U937 cells. The gist of the method: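 U937 cells differentiated 24 h with 20 ng/ml PMA, rested 24-48 h, used at 2 million cells/ml. Compounds in 0.1% DMSO final; LPS (E. coli, 100 ng/ml final) stimulation for 4 h at 37° C. Released TNF-α measured by ELISA; IC50 (μM).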

Where [2] appears, read: human U937 cells stimulated with LPS, read-out: U937 Cell IC50.
Where [3] appears, read: U937 cells stimulated with LPS, read-out: U937 Cell IC50, uM or % inhib @ conc. (uM): IC50.

T1 sequence (Q16539 whole entry): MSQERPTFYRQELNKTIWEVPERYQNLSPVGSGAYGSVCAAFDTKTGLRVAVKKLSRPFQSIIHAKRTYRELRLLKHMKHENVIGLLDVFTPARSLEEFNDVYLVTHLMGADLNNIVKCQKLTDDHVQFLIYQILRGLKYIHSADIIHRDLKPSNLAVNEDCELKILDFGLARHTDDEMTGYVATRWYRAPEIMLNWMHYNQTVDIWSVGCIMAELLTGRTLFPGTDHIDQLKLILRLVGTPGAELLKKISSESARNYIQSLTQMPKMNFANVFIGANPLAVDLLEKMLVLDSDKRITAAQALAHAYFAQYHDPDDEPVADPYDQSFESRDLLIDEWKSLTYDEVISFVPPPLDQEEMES

For the molecule `CCCCCc1cccc(C(C)NC(=O)Cn2nc(-c3ccc(F)cc3)c(-c3ccncc3)c2C)c1` (stereo not shown) [Example B-2354], the “P38 alpha kinase % inhib @ conc.” value at human p38 kinase alpha (@ 10.0 uM) turned out to be 65.0% @. Also, the “U937 Cell % inhib @ conc.” value in assay [1] is 25.0% @.

The IC50 is the point on the concentration scale where inhibition reaches its midpoint. For the molecule `CCOC(=O)CC[C@H](NC(=O)Cn1nc(-c2ccc(F)cc2)c(-c2ccncc2)c1C)C(=O)OCC` [Example B-2360], on human p38 kinase alpha (@ 10.0 uM), the “P38 alpha kinase % inhib @ conc.” value amounted to 45.0% @. In addition, in assay [1] (setting [2]), the IC50 is above 10 µM.

Turning to `COC(=O)C(C)NC(=O)Cn1nc(-c2ccc(F)cc2)c(-c2ccncc2)c1C` (stereo not shown) [Example B-2363], on human p38 kinase alpha (@ 10.0 uM), the “P38 alpha kinase % inhib @ conc.” value is on record as 44.0% @. Also, in assay [1], the “U937 Cell % inhib @ conc.” value amounted to 1.0% @.

`CCN1CCC(N(CC)C(=O)Cn2nc(-c3ccc(F)cc3)c(-c3ccncc3)c2C)C1` (stereo not shown) [Example B-2369]: the “P38 alpha kinase % inhib @ conc.” value at human p38 kinase alpha (@ 10.0 uM) was 32.0% @. Besides, the IC50 in assay [1] (setting [2]) is above 10 µM.

For `CCN(CC)C(=O)Cn1nc(-c2ccc(F)cc2)c(-c2ccncc2)c1C` [Example B-2371], the “P38 alpha kinase % inhib @ conc.” value at human p38 kinase alpha (@ 10.0 uM) is 54.0% @. The “U937 Cell % inhib @ conc.” value in assay [1] is 36.0% @.

Consider `Cc1c(-c2ccncc2)c(-c2ccc(F)cc2)nn1CC(=O)N(CC(C)C)CC(C)C` [Example B-2372], for which the “P38 alpha kinase % inhib @ conc.” value on human p38 kinase alpha (@ 100.0 uM) stood at 55.0% @. For the same molecule, the concentration for half-maximal inhibition (IC50) in assay [1] (setting [2]) is above 10 µM.

As to `C=CCN(C(=O)Cn1nc(-c2ccc(F)cc2)c(-c2ccncc2)c1C)C1CCCCC1` [Example B-2373], the “P38 alpha kinase % inhib @ conc.” value on human p38 kinase alpha (@ 100.0 uM) was 50.0% @. Besides, the “U937 Cell % inhib @ conc.” value in assay [1] is given as 6% @.

In the case of `Cc1c(-c2ccncc2)c(-c2ccc(F)cc2)nn1CC(=O)N(C)CCN(C)C` [Example B-2375], the “P38 alpha kinase % inhib @ conc.” value at human p38 kinase alpha (@ 100.0 uM) worked out at 62.0% @. In addition, the IC50 in assay [1] (setting [2]) is above 10 µM.

With `CCN(Cc1ccncc1)C(=O)Cn1nc(-c2ccc(F)cc2)c(-c2ccncc2)c1C` [Example B-2381], the “P38 alpha kinase % inhib @ conc.” value on human p38 kinase alpha (@ 100.0 uM) stood at 68% @. The “U937 Cell % inhib @ conc.” value in assay [1] turned out to be 2.0% @.

As to `Cc1c(-c2ccncc2)c(-c2ccc(F)cc2)nn1CC(=O)N1CCCN(C)CC1` [Example B-2382], at human p38 kinase alpha (@ 10.0 uM), the “P38 alpha kinase % inhib @ conc.” value stood at 51.0% @. The “U937 Cell % inhib @ conc.” value in assay [1] turned out to be 24.0% @.

For the molecule `Cc1c(-c2ccncc2)c(-c2ccc(F)cc2)nn1CC(=O)N1CCC[C@H]1CN1CCCC1` [Example B-2384], the “P38 alpha kinase % inhib @ conc.” value at human p38 kinase alpha (@ 100.0 uM) came out at 49% @. Besides, the “U937 Cell % inhib @ conc.” value in assay [1] came to 10.0% @.

For `Cc1c(-c2ccncc2)c(-c2ccc(F)cc2)nn1CC(=O)N(C)CCCC1c2ccccc2CCc2ccccc21` [Example B-2387], at human p38 kinase alpha (@ 100.0 uM), the “P38 alpha kinase IC50, uM or % inhib @ conc. (uM): % inhib” value (“P38 alpha kinase IC50 … % inhib” below) was 50.0% @. The IC50 in assay [1] (setting [3]) was above 10 µM.

Consider `Cc1c(-c2ccncc2)c(-c2ccc(F)cc2)nn1CC(=O)N1CCC(N(C)C(=O)OC(C)(C)C)C1` (stereo not shown) [Example B-2389], for which, at human p38 kinase alpha (@ 10.0 uM), the “P38 alpha kinase IC50 … % inhib” value was 39.0% @. Further, the “U937 Cell IC50, uM or % inhib @ conc. (uM): % inhib” value (“U937 Cell IC50 … % inhib” for short) in assay [1] (U937 cells stimulated with LPS) was 29.0% @.

`Cc1c(-c2ccncc2)c(-c2ccc(F)cc2)nn1CC(=O)N(C)CCn1ccnc1` [Example B-2393]: on human p38 kinase alpha (@ 10.0 uM), the “P38 alpha kinase IC50 … % inhib” value was found to be 43.0% @. Also, the IC50 in assay [1] (setting [3]) was above 10 µM.

Consider `COCCN(Cc1cccc(OC)c1)C(=O)Cn1nc(-c2ccc(F)cc2)c(-c2ccncc2)c1C` [Example B-2394], for which the “P38 alpha kinase IC50 … % inhib” value at human p38 kinase alpha (@ 10.0 uM) was 37.0% @. Besides, in assay [1] (U937 cells stimulated with LPS), the “U937 Cell IC50 … % inhib” value came out at 22.0% @.

In the case of `Cc1c(-c2ccncc2)c(-c2ccc(F)cc2)nn1CC(=O)N(C)CCN1CCOCC1` [Example B-2395], the “P38 alpha kinase IC50 … % inhib” value at human p38 kinase alpha (@ 10.0 uM) was found to be 32.0% @. Further, in assay [1] (U937 cells stimulated with LPS), the “U937 Cell IC50 … % inhib” value is given as 28.0% @.

Turning to `COc1ccc(CN(CCc2ccccc2)C(=O)Cn2nc(-c3ccc(F)cc3)c(-c3ccncc3)c2C)cc1` [Example B-2396], the “P38 alpha kinase IC50 … % inhib” value at human p38 kinase alpha (@ 10.0 uM) worked out at 75.0% @. Besides, the IC50 in assay [1] (setting [3]) is above 10 µM.

Consider `Cc1c(-c2ccncc2)c(-c2ccc(F)cc2)nn1CC(=O)N(CC1CC1)C(C)Cc1ccc(Cl)cc1` (stereo not shown) [Example B-2397], for which the “P38 alpha kinase IC50 … % inhib” value at human p38 kinase alpha (@ 10.0 uM) was found to be 83.0% @. Also, in assay [1] (U937 cells stimulated with LPS), the “U937 Cell IC50 … % inhib” value amounted to 22.0% @.

In the case of `CCN(CC)CCN(Cc1ccc(Cl)cc1)C(=O)Cn1nc(-c2ccc(F)cc2)c(-c2ccncc2)c1C` [Example B-2398], the “P38 alpha kinase IC50 … % inhib” value on human p38 kinase alpha (@ 100.0 uM) turned out to be 55% @. Besides, the “U937 Cell IC50 … % inhib” value in assay [1] (U937 cells stimulated with LPS) was 10.0% @.

Regarding `COc1ccc(C2OCCN2C(=O)Cn2nc(-c3ccc(F)cc3)c(-c3ccncc3)c2C)cc1OC` (stereo not shown) [Example B-2399], the “P38 alpha kinase IC50 … % inhib” value at human p38 kinase alpha (@ 10.0 uM) was 69.0% @. Also, the “U937 Cell IC50 … % inhib” value in assay [1] (U937 cells stimulated with LPS) was 18.0% @.

For the molecule `Cc1cc(Cl)ccc1OCC1SCCN1C(=O)Cn1nc(-c2ccc(F)cc2)c(-c2ccncc2)c1C` (stereo not shown) [Example B-2405], on human p38 kinase alpha (@ 100.0 uM), the “P38 alpha kinase IC50 … % inhib” value amounted to 47% @. Also, the concentration for half-maximal inhibition (IC50) in assay [1] (setting [3]) is above 10 µM.

With `COC(=O)C1CN1C(=O)Cn1nc(-c2ccc(F)cc2)c(-c2ccncc2)c1C` (stereo not shown) [Example B-2406], at human p38 kinase alpha (@ 10.0 uM), the “P38 alpha kinase IC50 … % inhib” value worked out at 45.0% @. Moreover, the “U937 Cell IC50 … % inhib” value in assay [1] (U937 cells stimulated with LPS) stood at 24.0% @.

Take `COc1ccc2[nH]c3c(c2c1)CCN(C(=O)Cn1nc(-c2ccc(F)cc2)c(-c2ccncc2)c1C)C3` [Example B-2408]: the “P38 alpha kinase IC50 … % inhib” value at human p38 kinase alpha (@ 10.0 uM) is 39.0% @. Further, the “U937 Cell IC50 … % inhib” value in assay [1] (U937 cells stimulated with LPS) turned out to be 10.0% @.

`Cc1c(-c2ccncc2)c(-c2ccc(F)cc2)nn1CC(=O)N1CCCCC1CCN1CCCCC1` (stereo not shown) [Example B-2411]: at human p38 kinase alpha (@ 100.0 uM), the “P38 alpha kinase IC50 … % inhib” value is reported as 26% @. Besides, the “U937 Cell IC50 … % inhib” value in assay [1] (U937 cells stimulated with LPS) is 13.0% @.

For the molecule `Cc1c(-c2ccncc2)c(-c2ccc(F)cc2)nn1CC(=O)N(C)CC(=O)N(C)C` [Example B-2412], the “P38 alpha kinase IC50 … % inhib” value at human p38 kinase alpha (@ 10.0 uM) amounted to 40.0% @. The “U937 Cell IC50 … % inhib” value in assay [1] (U937 cells stimulated with LPS) is reported as 31.0% @.

In the case of `Cc1cccc(C)c1NC(=O)Cn1nc(-c2ccc(F)cc2)c(-c2ccncc2)c1C` [Example B-2417], the “P38 alpha kinase IC50 … % inhib” value on human p38 kinase alpha (@ 10.0 uM) turned out to be 83.0% @. For the same molecule, the “U937 Cell IC50 … % inhib” value in assay [1] (U937 cells stimulated with LPS) was determined as 18.0% @.

As for `Cc1ccc(NC(=O)Cn2nc(-c3ccc(F)cc3)c(-c3ccncc3)c2C)cc1` [Example B-2423], the “P38 alpha kinase IC50 … % inhib” value on human p38 kinase alpha (@ 10.0 uM) is 85.0% @. Also, in assay [1] (setting [3]), the IC50 was above 10 µM.

On to `CCCCCCCCOc1cccc(NC(=O)Cn2nc(-c3ccc(F)cc3)c(-c3ccncc3)c2C)c1` [Example B-2442], for which the “P38 alpha kinase IC50 … % inhib” value at human p38 kinase alpha (@ 10.0 uM) is 86.0% @. Further, the IC50 in assay [1] (setting [3]) was above 10 µM.

Consider `Cc1cccc(OC(=O)c2ccc(NC(=O)Cn3nc(-c4ccc(F)cc4)c(-c4ccncc4)c3C)cc2)c1` [Example B-2444], for which, at human p38 kinase alpha (@ 10.0 uM), the “P38 alpha kinase IC50 … % inhib” value is 89.0% @. Also, the “U937 Cell IC50 … % inhib” value in assay [1] (U937 cells stimulated with LPS) is recorded as 7.0% @.

As for `Cc1c(-c2ccncc2)c(-c2ccc(F)cc2)nn1CC(=O)Nc1ccc(CCC(=O)c2cccnc2)cc1` [Example B-2445], the “P38 alpha kinase IC50 … % inhib” value on human p38 kinase alpha (@ 10.0 uM) stood at 94.0% @. Also, in assay [1] (U937 cells stimulated with LPS), the “U937 Cell IC50 … % inhib” value was determined as 15.0% @.

For the molecule `Cc1c(-c2ccncc2)c(-c2ccc(F)cc2)nn1CC(=O)Nc1ccc(S(=O)(=O)C(F)F)cc1` [Example B-2446], the “P38 alpha kinase IC50 … % inhib” value at human p38 kinase alpha (@ 10.0 uM) came to 90.0% @. Also, the “U937 Cell IC50 … % inhib” value in assay [1] (U937 cells stimulated with LPS) was determined as 28.0% @.

As for `CCCCCSc1cccc(NC(=O)Cn2nc(-c3ccc(F)cc3)c(-c3ccncc3)c2C)c1` [Example B-2447], the “P38 alpha kinase IC50 … % inhib” value on human p38 kinase alpha (@ 10.0 uM) is given as 94.0% @. Besides, the IC50 in assay [1] (setting [3]) is above 10 µM.
